pIC50: −log10 of the molar value.
What was measured:
Format in all cases: cell-based
human H4 receptor [1] = target: T1, human H4 receptor (Homo sapiens, UniProt Q9H3N8); test: H4 Antagonist Functional cAMP Gi Assay; conditions: HEKf cells expressing human H4 receptor, functional antagonist pKb by Cheng-Prusoff vs histamine; for Kb: read-out: Human H4 cAMP fpKb (converted)
T1 construct: expressed in transfected cells; host or cells: HEKf cells infected with baculovirus
Experimental: HEKf cells were infected overnight using baculovirus expressing the human H4 receptor, then centrifuged at 1,200 rpm for 5 min, frozen in cell freezing medium (Sigma) and stored at −150° C. On the day of assay, the cells were thawed and resuspended in HBSS with 500 nM IBMX to achieve a density of 1,500 cells/well. H4 ligands were prepared in DMSO and stamped by LabCyte ECHO acoustic dispensing at 25 nL in low volume plates. 10 μL/well cells were plated in the presence of 1 μM forskolin, subjected to centrifugation at 1,200 rpm for 1 min and incubated for 30 min prior to addition of Cisbio cAMP detection reagents to a total volume 20 μL/well. […] Following detection reagent addition and shaking at room temperature for 60 min, cAMP accumulation was measured using HTRF on a PheraStar plate reader. EC50 values were generated using a 4-parameter logistical fit equation to quantify agonist potencies. Functional antagonist affinity values were generated using the Cheng-Prusoff equation to calculate a pKb value using the antagonist assay data.

hERG [2] = target: T2, hERG (Homo sapiens, UniProt Q12809); test: hERG single-concentration assay (QPatch automated patch clamp, CHO cells, 30 μM); conditions: CHO cells stably expressing hERG
T2 sequence (Q12809 whole entry): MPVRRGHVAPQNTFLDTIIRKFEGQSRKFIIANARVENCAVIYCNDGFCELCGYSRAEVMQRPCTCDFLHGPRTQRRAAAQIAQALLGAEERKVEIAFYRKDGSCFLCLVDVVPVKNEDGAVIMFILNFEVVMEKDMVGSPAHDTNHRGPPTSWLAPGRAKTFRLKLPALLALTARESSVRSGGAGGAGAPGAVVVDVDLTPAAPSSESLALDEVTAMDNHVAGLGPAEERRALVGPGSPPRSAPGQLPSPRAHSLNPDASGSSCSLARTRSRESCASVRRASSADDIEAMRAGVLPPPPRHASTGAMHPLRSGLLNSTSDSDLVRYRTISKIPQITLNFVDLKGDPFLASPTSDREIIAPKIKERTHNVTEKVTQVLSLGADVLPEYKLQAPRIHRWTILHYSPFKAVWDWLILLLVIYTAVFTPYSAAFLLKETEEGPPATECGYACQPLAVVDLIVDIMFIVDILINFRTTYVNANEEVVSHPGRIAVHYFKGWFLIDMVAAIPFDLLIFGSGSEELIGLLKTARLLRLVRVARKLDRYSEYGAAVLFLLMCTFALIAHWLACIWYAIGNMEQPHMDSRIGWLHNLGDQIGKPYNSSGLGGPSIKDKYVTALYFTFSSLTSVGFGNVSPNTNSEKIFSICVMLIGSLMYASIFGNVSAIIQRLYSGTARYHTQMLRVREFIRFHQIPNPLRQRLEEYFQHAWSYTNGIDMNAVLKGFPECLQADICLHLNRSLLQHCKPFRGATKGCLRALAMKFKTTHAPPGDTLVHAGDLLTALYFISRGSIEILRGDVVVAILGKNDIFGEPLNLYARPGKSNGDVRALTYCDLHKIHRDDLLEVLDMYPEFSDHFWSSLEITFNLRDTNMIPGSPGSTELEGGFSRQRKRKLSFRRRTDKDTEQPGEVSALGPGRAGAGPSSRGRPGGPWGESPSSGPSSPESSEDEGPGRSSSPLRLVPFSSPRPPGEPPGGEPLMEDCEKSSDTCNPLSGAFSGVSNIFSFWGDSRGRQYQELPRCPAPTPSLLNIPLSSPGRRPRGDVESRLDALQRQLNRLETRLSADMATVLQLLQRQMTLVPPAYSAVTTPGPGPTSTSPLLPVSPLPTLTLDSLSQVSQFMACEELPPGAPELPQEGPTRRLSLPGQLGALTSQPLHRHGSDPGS
Text: (§1) Series resistance (4-15 MΩ) was compensated by >80%.

hERG [3] = target: T2, hERG; test: hERG pIC50 assay (QPatch automated patch clamp, CHO cells, 1, 3, 10 and 30 μM); conditions: CHO cells expressing hERG, 1-30 μM, ≤4.0 = fails to reach >40% block at 30 μM
Text: as §1

human H4 receptor [4] = target: T1, human H4 receptor; test: H4 Antagonist Functional Dynamic Mass Redistribution Assay; conditions: HEKf cells expressing human H4 receptor, functional antagonist pKb by Cheng-Prusoff vs histamine EC80; for Kb: read-out: Human H4 DMR fpKb (converted)
Experimental: HEKf cells were infected using baculovirus expressing the human H4 receptor, plated into fibronectin-coated EPIC plates at a density of 10,000 cells/well and incubated overnight at 37° C. The medium on cells was changed to 30 μL HBSS with 20 mM HEPES per well and 30 nL DMSO were added per well by LabCyte ECHO acoustic dispensing. Following 2 h equilibration at room temperature, 30 nL of H4 ligands prepared in DMSO were stamped by LabCyte ECHO acoustic dispensing into seeded EPIC plates and cellular dynamic mass redistribution was monitored using a Corning EPIC plate reader. Following 45 min measurement, 30 nL/well of histamine EC80 was added and monitored to obtain antagonist assay data. Maximum baseline-corrected responses in pm were used to generate concentration response curves. EC50 values were generated using a 4-parameter logistical fit equation to quantify agonist potencies. Functional antagonist affinity values were generated using the Cheng-Prusoff equation to calculate a pKb value using the antagonist assay data.

T1 sequence (Q9H3N8 whole entry): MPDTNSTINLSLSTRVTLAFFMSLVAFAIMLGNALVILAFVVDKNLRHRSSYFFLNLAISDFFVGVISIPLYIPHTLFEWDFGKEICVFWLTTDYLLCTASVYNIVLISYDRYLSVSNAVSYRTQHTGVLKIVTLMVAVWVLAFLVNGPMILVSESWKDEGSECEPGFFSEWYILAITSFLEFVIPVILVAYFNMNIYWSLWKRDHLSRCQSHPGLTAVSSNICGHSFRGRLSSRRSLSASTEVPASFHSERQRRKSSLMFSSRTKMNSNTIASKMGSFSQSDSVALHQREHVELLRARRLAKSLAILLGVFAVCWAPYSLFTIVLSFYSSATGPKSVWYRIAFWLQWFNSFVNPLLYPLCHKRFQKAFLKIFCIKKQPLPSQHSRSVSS

| Structure (SMILES) | Kb (human H4 receptor [1]) [nM] | inhibition at 30 µM (hERG [2]) [%] | pIC50 (hERG [3]) | Kb (human H4 receptor [4]) [nM] | Human H4 cAMP fpKb (human H4 receptor [1]) | Human H4 DMR fpKb (human H4 receptor [4]) |
| --- | --- | --- | --- | --- | --- | --- |
| CN[C@@H]1CCN(c2nc(N)nc3c2OC[C@@H](C(C)C)N3)C1 [Example 1-4, (R)-7-Isopropyl-4-((R)-3-(methylamino)pyrrolidin-1-yl)-7,8-dihydro-6H-pyrimido[5,4-b][1,4]oxazin-2-amine] | 0.794 | 20 | ≤ 4.00 |  |  |  |
| CC(C)[C@@H]1COc2c(nc(N)nc2N2CC[C@@H](N)C2)N1 [Example 2-2, (R)-4-((R)-3-Aminopyrrolidin-1-yl)-7-isopropyl-7,8-dihydro-6H-pyrimido[5,4-b][1,4]oxazin-2-amine] | 0.631 |  | ≤ 4.00 |  |  |  |
| CNC1CN(c2nc(N)nc3c2OC[C@@H](C(C)C)N3)C1 [Example 3-2, (R)-7-Isopropyl-4-(3-(methylamino)azetidin-1-yl)-7,8-dihydro-6H-pyrimido[5,4-b][1,4]oxazin-2-amine] | 1.26 | 26 | ≤ 4.00 |  |  |  |
| CN[C@@H]1CCN(c2nc(N)nc3c2OCC[C@@H](C)N3)C1 [Example 11-2, (R)-8-Methyl-4-((R)-3-(methylamino)pyrrolidin-1-yl)-6,7,8,9-tetrahydropyrimido[5,4-b][1,4]oxazepin-2-amine] | 2.51 | 13 |  | 5.01 |  |  |
| CN[C@@H]1CCN(c2nc(N)nc3c2OCC[C@H](C)N3)C1 [Example 11-3, (S)-8-Methyl-4-((R)-3-(methylamino)pyrrolidin-1-yl)-6,7,8,9-tetrahydropyrimido[5,4-b][1,4]oxazepin-2-amine] | 31.6 |  |  | 10 |  |  |
| CC[C@@H]1CCOc2c(nc(N)nc2N2CC[C@@H](NC)C2)N1 [Example 11-4, (R)-8-Ethyl-4-((R)-3-(methylamino)pyrrolidin-1-yl)-6,7,8,9-tetrahydropyrimido[5,4-b][1,4]oxazepin-2-amine] | 0.631 | 39 | ≤ 4.00 | 1.26 |  |  |
| CN[C@@H]1CCN(c2nc(N)nc3c2OCC[C@@H](C(C)C)N3)C1 [Example 11-5, (S)-8-Isopropyl-4-((R)-3-(methylamino)pyrrolidin-1-yl)-6,7,8,9-tetrahydropyrimido[5,4-b][1,4]oxazepin-2-amine] | 0.398 | 21 | ≤ 4.00 |  |  |  |
| CN[C@@H]1CCN(c2nc(N)nc3c2OCC(C(C)C)CN3)C1 (stereo partly drawn) [Example 11-9, 7-Isopropyl-4-((R)-3-(methylamino)pyrrolidin-1-yl)-6,7,8,9-tetrahydropyrimido[5,4-b][1,4]oxazepin-2-amine] | 63.1 |  |  | 50.1 |  |  |
| CC(C)[C@@H]1CCOc2c(nc(N)nc2N2CC[C@@H](N)C2)N1 [Example 12-1, (S)-4-((R)-3-Aminopyrrolidin-1-yl)-8-isopropyl-6,7,8,9-tetrahydropyrimido[5,4-b][1,4]oxazepin-2-amine] | 0.631 |  | ≤ 4.00 | 2.51 |  |  |
| CNC1CN(c2nc(N)nc3c2OCC[C@@H](C(C)C)N3)C1 [Example 13-1, (S)-8-Isopropyl-4-(3-(methylamino)azetidin-1-yl)-6,7,8,9-tetrahydropyrimido[5,4-b][1,4]oxazepin-2-amine] | 1 | 15 | ≤ 4.00 | 1.58 |  |  |
| CN[C@@H]1CCN(c2ncnc3c2OCC[C@@H](C(C)C)N3)C1 [Example 14-1, (R)-1-((S)-8-Isopropyl-6,7,8,9-tetrahydropyrimido[5,4-b][1,4]oxazepin-4-yl)-N-methylpyrrolidin-3-amine] | 3.16 | 41 |  | 0.794 |  |  |
| CN[C@@H]1CCN(c2nc(N)nc3c2OCC2CCCC2N3)C1 (stereo partly drawn) [Example 17-1, 4-[(3R)-3-(methylamino)pyrrolidin-1-yl]-6a,7,8,9,9a, 10-hexahydro-6H-cyclopenta[e]pyrimido[5,4-b][1,4]oxazepin-2-amine] |  | 29 |  | 12.6 |  |  |
| CNC1CN(c2nc(N)nc3c2OCC2CCCC2N3)C1 (stereo not drawn) [Example 17-3, 4-[3-(methylamino)azetidin-1-yl]-6a, 7,8,9,9a, 10-hexahydro-6H-cyclopenta[e]pyrimido[5,4-b][1,4]oxazepin-2-amine] |  | 42 |  | 31.6 |  |  |
| CN[C@@H]1CCN(c2ncnc3c2OCC2(CC(F)(F)C2)N3)C1 [Example 17-13, (3R)-1-(3,3-difluoro-6′H,8′H-spiro[cyclobutane-1,7′-pyrimido[5,4-b][1,4]oxazin]-4′-yl)-N-methylpyrrolidin-3-amine] |  |  |  | 3.98 |  |  |
| CC[C@]1(C)COc2c(nc(N)nc2N2CC[C@@H](NC)C2)N1 [Example 17-14, 7-ethyl-7-methyl-4-[(3R)-3-(methylamino)pyrrolidin-1-yl]-7,8-dihydro-6H-pyrimido[5,4-b][1,4]oxazin-2-amine] |  |  |  | 7.94 |  |  |
| CN[C@@H]1CCN(c2nc(N)nc3c2OCC2(CC(F)(F)C2)N3)C1 [Example 17-15, 3,3-difluoro-4′-[(3R)-3-(methylamino)pyrrolidin-1-yl]-6′H,8′H-spiro[cyclobutane-1,7′-pyrimido[5,4-b][1,4]oxazin]-2′-amine] |  |  |  | 7.94 |  |  |
| CN1CCN(C(=O)c2cc3cc(Cl)ccc3[nH]2)CC1 [JNJ-7777120, reference compound] |  |  | 5.40 |  |  |  |
| CC(C)c1cc(N2CC[C@@H](N)C2)nc(N)n1 [JNJ-39758979, reference compound] |  |  |  |  | 8.1 | 8.5 |
